Reference: ChEMBL document CHEMBL3813687, “A combined ligand- and structure-based approach for the identification of rilmenidine-derived compounds which synergize the antitumor effects of doxorubicin” (Bioorg Med Chem, 2016)
Active and inactive are the calls of the source. The rule behind the calls is not given here.

Assays:
K562 [1] = experiment: Induction of apoptosis in human K562 cells assessed as early apoptotic cells at 300 uM after 48 hrs by Annexin V-FITC/propidium iodide staining based flow cytometry (reference value: 5%); assay type: functional
K562 [2] = experiment: Induction of apoptosis in human K562 cells assessed as early apoptotic cells at 300 uM after 24 hrs by Annexin V-FITC/propidium iodide staining based flow cytometry (reference value: 5%); assay type: functional
Nischarin [3] = biological target: T1, Nischarin (Rattus norvegicus, UniProt Q4G017); experiment: Displacement of [125I]PIC from Imidazoline-1 receptor in rat PC12 cell membrane incubated for 30 mins by gamma counting method; assay type: cell membranes, PC-12
T1 sequence (Q4G017 whole entry): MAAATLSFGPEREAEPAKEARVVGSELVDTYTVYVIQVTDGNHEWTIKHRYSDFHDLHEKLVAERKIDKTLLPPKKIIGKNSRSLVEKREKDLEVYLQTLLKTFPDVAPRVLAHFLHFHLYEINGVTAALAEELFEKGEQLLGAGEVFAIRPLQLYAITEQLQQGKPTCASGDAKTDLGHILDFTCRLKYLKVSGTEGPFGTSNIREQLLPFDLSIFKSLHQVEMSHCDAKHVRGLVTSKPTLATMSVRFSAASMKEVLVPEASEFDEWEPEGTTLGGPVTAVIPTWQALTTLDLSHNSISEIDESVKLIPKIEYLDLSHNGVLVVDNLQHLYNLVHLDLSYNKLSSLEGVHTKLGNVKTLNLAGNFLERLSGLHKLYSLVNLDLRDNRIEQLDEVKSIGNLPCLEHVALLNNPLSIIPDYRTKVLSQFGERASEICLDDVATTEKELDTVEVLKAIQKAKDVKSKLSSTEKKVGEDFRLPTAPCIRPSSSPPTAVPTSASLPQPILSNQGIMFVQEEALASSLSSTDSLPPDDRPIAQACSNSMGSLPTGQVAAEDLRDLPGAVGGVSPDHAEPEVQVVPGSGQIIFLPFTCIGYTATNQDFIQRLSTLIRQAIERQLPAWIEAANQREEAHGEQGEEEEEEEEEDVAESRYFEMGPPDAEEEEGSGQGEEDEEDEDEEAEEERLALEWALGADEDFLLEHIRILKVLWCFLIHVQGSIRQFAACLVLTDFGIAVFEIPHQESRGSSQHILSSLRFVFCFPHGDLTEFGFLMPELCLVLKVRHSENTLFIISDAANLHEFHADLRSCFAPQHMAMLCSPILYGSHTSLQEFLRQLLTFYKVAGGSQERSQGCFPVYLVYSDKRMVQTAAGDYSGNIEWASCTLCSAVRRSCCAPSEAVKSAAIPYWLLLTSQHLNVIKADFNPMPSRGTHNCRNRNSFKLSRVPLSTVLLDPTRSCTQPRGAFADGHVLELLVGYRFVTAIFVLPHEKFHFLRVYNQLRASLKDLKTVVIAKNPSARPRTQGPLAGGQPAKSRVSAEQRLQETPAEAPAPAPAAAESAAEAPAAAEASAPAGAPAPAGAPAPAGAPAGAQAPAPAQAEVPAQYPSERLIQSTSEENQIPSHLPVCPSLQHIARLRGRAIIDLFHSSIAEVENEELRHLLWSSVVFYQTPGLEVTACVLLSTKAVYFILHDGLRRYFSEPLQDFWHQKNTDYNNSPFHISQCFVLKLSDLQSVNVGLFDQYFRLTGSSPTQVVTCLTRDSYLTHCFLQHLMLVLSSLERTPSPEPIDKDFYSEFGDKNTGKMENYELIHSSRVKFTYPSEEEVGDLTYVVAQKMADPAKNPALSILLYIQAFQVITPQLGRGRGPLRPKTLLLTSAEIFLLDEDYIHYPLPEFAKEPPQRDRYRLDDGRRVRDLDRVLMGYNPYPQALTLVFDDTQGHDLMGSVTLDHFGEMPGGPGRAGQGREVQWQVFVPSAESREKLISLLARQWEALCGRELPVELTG

K562 [4] = experiment: Induction of apoptosis in human K562 cells assessed as early apoptotic cells at 300 uM up to 48 hrs by Annexin V-FITC/propidium iodide staining based flow cytometry; assay type: functional, cell-based
K562 [5] = experiment: Antiproliferative activity against human K562 cells assessed as inhibition of cell survival after 48 hrs by MTT assay; assay type: functional, cell-based; conditions: K562, 48 h
[6] = biological target: T2, Alpha-2A adrenergic receptor (Homo sapiens, UniProt P08913); experiment: Intrinsic activity at recombinant human alpha2A adrenoreceptor expressed in CHOK1 cell membrane incubated for 30 mins by [35S]GTPgammaS binding assay relative to adrenaline; assay type: cell membranes; conditions: CHO-K1, human, 0.5 h; read-out: Intrinsic activity
T2 sequence (P08913 whole entry): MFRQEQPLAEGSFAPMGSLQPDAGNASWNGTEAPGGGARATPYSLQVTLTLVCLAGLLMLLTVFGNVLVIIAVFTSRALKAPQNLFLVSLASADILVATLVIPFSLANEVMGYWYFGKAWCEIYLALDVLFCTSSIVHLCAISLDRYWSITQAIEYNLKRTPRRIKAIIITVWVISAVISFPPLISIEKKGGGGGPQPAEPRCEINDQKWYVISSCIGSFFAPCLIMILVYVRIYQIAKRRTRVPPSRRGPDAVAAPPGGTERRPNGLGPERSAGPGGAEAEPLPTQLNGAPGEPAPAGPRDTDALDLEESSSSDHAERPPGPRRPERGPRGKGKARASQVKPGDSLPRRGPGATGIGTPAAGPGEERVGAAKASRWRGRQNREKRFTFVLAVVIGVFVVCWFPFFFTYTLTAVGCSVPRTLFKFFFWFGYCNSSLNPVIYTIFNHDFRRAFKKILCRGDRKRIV

[7] = biological target: T2, Alpha-2A adrenergic receptor; experiment: Displacement of [3H]RS-79948-197 from recombinant human alpha2A adrenoreceptor expressed in CHOK1 cell membrane by scintillation counting method; assay type: cell membranes, CHO-K1; conditions: read-out: Ki(app)
[8] = Displacement of [3H]-clonidine from Imidazoline-1 receptor in bovine chromaffin cell membranes incubated for 40 mins in presence of RX821002; set-up: species or system Bos taurus
Nischarin [9] = biological target: T1, Nischarin; experiment: Displacement of [125I]PIC from Imidazoline-1 receptor in rat PC12 cell membrane by gamma counting method; assay type: cell membranes, PC-12
K562 [10] = experiment: Induction of apoptosis in human K562 cells assessed as late apoptotic cells at 1 uM after 48 hrs by Annexin V-FITC/propidium iodide staining based flow cytometry (reference value: 1%); assay type: functional
K562 [11] = experiment: Induction of apoptosis in human K562 cells assessed as early apoptotic cells at 1 uM after 48 hrs by Annexin V-FITC/propidium iodide staining based flow cytometry relative to control; assay type: functional
K562 [12] = experiment: Cell cycle arrest in human K562 cells assessed as increase in G2/M cell population after 48 hrs by propidium iodide staining based flow cytometry; assay type: functional
K562 [13] = experiment: Induction of apoptosis in human K562 cells assessed as necrotic cells at 1 uM after 48 hrs by Annexin V-FITC/propidium iodide staining based flow cytometry (reference value: 1%); assay type: functional
K562 [14] = experiment: Induction of apoptosis in human K562 cells assessed as early apoptotic cells at 1 uM after 48 hrs by Annexin V-FITC/propidium iodide staining based flow cytometry (reference value: 5%); assay type: functional

## COc1nc(C)nc(Cl)c1NC1=NCCN1 [MOXONIDINE]
K562 [1]
  Activity: 2.68%
K562 [2]
  Activity: 2.31%

## Clc1cc(I)cc(Cl)c1N=C1NCCN1 [PI-CLONIDINE]
Nischarin [3]
  Ki: 0.000794 µM

## CCC1(C2=NCCN2)Cc2ccccc2O1 (stereo not drawn) [EFAROXAN]
K562 [4]
  Activity: inactive
K562 [5]
  IC50: > 300 µM
[6]
  Emax: -13%

## CCCCCNc1cc(C)n(Cc2ccccc2)c(=O)c1
K562 [5]
  IC50: 140 µM
[7]
  Ki: 110 µM
[6]
  Emax: -8%

## CCCCCNc1cc(C)n(CCCCC)c(=O)c1
K562 [5]
  IC50: 115 µM
[7]
  Ki: 62 µM
[6]
  Emax: -18%

## CCC(NC1=NCCC1)C1CC1 (stereo not drawn)
[8]
  pKi: 6.29

## Cc1cc(NCc2ccc(Cl)cc2)cc(=O)n1CCC(C)C
K562 [5]
  IC50: 224 µM
[7]
  Ki: 99 µM
[6]
  Emax: -1%

## CC(CC1=NCCN1)c1ccccc1 (stereo not drawn)
Nischarin [9]
  Ki: 7.24 µM

## Cc1cccc([C@H](C)c2c[nH]cn2)c1C [DEXMEDETOMIDINE]
[6]
  Emax: 63%

## CC1CCC(NC(C2CC2)C2CC2)=N1 (stereo not drawn)
[8]
  pKi: 5.8

## Clc1cccc2c1CN(NC1=NCCN1)C2
Nischarin [3]
  Ki: 0.0282 µM

## C1CCC2N=C(NC(C3CC3)C3CC3)CC2C1 (stereo not drawn)
[8]
  pKi: 4

## COc1cccc2c1C(=O)c1c(O)c3c(c(O)c1C2=O)C[C@@](O)(C(=O)CO)C[C@@H]3O[C@H]1C[C@H](N)[C@H](O)[C@H](C)O1 [DOXORUBICIN]
K562 [5]
  IC50: 1 µM
K562 [10]
  Activity: 0%
K562 [11]
  Activity: 10%
K562 [12]
  Activity: Active
K562 [13]
  Activity: 0%
K562 [14]
  Activity: 20%

## CC1CCC(=Nc2ccc(I)cc2Cl)N1 (stereo not drawn)
Nischarin [3]
  Ki: 0.000178 µM

## Clc1cccc(Cl)c1N=C1NCCN1 [CLONIDINE]
Nischarin [3]
  Ki: 0.126 µM

## C(=C\c1ccccc1)/C1=NCCN1 [TRACIZOLINE]
Nischarin [9]
  Ki: 0.0191 µM

## CCCCCn1c(C)cc(NCc2ccc(Cl)cc2)cc1=O
K562 [5]
  IC50: > 300 µM
[7]
  Ki: 80 µM
[6]
  Emax: 0%
